Assay results published in US9771337B2, “Neprilysin inhibitors” (THERAVANCE BIOPHARMA R&D IP, LLC, priority 2011, dated 2017).

Target: T1, human NEP (Homo sapiens, UniProt P08473)
T1 construct: purchased R&D Systems, Minneapolis, Minn; 1182-ZN
Assay: In vitro enzyme inhibition assay, inhibitor potency at human NEP
Type: biochemical
Details: pKi values at human NEP; recombinant human NEP, fluorogenic peptide substrate 10 μM, 37° C.
Procedure: The inhibitory activities of compounds at human and rat neprilysin (EC 3.4.24.11; NEP) and human angiotensin converting enzyme (ACE) were determined using in vitro assays as described below.
Recombinant human NEP and recombinant human ACE were obtained commercially (R&D Systems, Minneapolis, Minn., catalog numbers 1182-ZN and 929-ZN, respectively). The fluorogenic peptide substrate Mca-D-Arg-Arg-Leu-Dap-(Dnp)-OH (Medeiros et al. (1997) Braz. J. Med. Biol. Res. 30:1157-62; Anaspec, San Jose, Calif.) and Abz-Phe-Arg-Lys(Dnp)-Pro-OH (Araujo et al. (2000) Biochemistry 39:8519-8525; Bachem, Torrance, Calif.) were used in the NEP and ACE assays respectively.
The assays were performed in 384-well white opaque plates at 37° C. using the fluorogenic peptide substrates at a concentration of 10 μM in Assay Buffer (NEP: 50 mM HEPES, pH 7.5, 100 mM NaCl, 0.01% polyethylene glycol sorbitan monolaurate (Tween-20), 10 μM ZnSO4; ACE: 50 mM HEPES, pH 7.5, 100 mM NaCl, 0.01% Tween-20, 1 μM ZnSO4).
Test compounds were assayed over the range of concentrations from […] to 20 μM. Test compounds were added to the enzymes and incubated for 30 minute at 37° C. prior to initiating the reaction by the addition of substrate. Reactions were terminated after 20 minutes of incubation at 37° C. by the addition of glacial acetic acid to a final concentration of 3.6% (v/v).
Plates were read on a fluorometer with excitation and emission wavelengths set to 320 nm and 405 nm, respectively. Inhibition constants were obtained by nonlinear regression of the data using the equation (GraphPad Software, Inc., San Diego, Calif.): v=v0/[1+(I/K′)] where v is the reaction rate, v0 is the uninhibited reaction rate, I is the inhibitor concentration and K′ is the apparent inhibition constant.
Compounds of the invention were tested in this assay and found to have pKi values at human NEP as follows.

T1 sequence (P08473 whole entry): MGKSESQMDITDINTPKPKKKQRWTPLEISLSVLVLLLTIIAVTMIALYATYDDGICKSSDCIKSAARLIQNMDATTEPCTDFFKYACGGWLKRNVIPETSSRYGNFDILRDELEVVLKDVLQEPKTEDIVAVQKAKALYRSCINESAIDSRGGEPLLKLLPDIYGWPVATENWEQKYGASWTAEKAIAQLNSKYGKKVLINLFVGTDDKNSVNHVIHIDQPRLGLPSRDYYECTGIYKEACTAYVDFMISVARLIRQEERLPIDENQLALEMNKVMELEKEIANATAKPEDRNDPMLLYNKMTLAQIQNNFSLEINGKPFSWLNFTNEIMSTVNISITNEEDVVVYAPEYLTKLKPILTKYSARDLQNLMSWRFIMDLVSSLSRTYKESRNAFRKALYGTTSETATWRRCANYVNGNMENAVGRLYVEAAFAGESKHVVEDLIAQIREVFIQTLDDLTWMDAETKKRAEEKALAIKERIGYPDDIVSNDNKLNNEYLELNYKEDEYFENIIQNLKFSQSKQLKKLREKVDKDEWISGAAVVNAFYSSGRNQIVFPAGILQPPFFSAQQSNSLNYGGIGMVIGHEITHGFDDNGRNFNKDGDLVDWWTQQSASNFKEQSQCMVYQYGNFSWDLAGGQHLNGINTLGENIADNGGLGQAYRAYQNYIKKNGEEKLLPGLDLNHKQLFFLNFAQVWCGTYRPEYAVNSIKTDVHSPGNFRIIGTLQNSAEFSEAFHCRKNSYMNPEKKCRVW

SMILES	Ki
CCCc1nc2c(C)cc(C(=O)N[C@H](Cc3ccccc3)[C@@H](O)C(=O)O)cc2n1Cc1cccnc1 [Example 5-3, (2R,3R)-2-Hydroxy-3-[(7-methyl-2-propyl-3-pyridin-3-ylmethyl-3H-benzoimidazole-5-carbonyl)-amino]-4-phenyl-butyric acid]	0.0126 to 0.1 µM
CCCc1nc2c(C)cc(C(=O)N[C@H](Cc3ccccc3)[C@@H](O)C(=O)O)cc2n1CC(=O)O [Example 5-5, (2R,3R)-3-[(3-Carboxymethyl-7-methyl-2-propyl-3H-benzoimidazole-5-carbonyl)-amino]-2-hydroxy-4-phenyl-butyric acid]	0.0126 to 0.1 µM
CCCc1nc2c(C)cc(C(=O)N[C@H](Cc3ccccc3)[C@@H](O)C(=O)O)cc2n1CC(N)=O [Example 5-8, (2R,3R)-3-[(3-Carbamoylmethyl-7-methyl-2-propyl-3H-benzoimidazole-5-carbonyl)-amino]-2-hydroxy-4-phenyl-butyric acid]	0.0126 to 0.1 µM
CCc1nc2c(Cl)cc(C(=O)N[C@H](Cc3ccccc3)[C@@H](O)C(=O)O)cc2[nH]1 [Example 5-9, (2R,3R)-3-[(7-Chloro-2-ethyl-3H-benzoimidazole-5-carbonyl)-amino]-2-hydroxy-4-phenyl-butyric acid]	0.0126 to 0.1 µM
O=C(N[C@H](Cc1ccccc1)[C@@H](O)C(=O)O)c1ccc2nn[nH]c2c1 [Example 5-11, (2R,3R)-3-[(3H-Benzotriazole-5-carbonyl)-amino]-2-hydroxy-4-phenyl-butyric acid]	0.0126 to 0.1 µM
Cc1cc(C(=O)N[C@H](Cc2ccccc2)[C@@H](O)C(=O)O)cc2[nH]nnc12 [Example 5-15, (2R,3R)-2-Hydroxy-3-[(7-methyl-3H-benzotriazole-5-carbonyl)-amino]-4-phenyl-butyric acid]	0.0126 to 0.1 µM
O=C(O)c1cnc(C(=O)N[C@H](Cc2ccccc2)[C@@H](O)C(=O)O)cn1 [Example 5-18, 5-((1R,2R)-1-Benzyl-2-carboxy-2-hydroxy-ethylcarbamoyl)-pyrazine-2-carboxylic acid]	0.0126 to 0.1 µM
O=C(N[C@H](Cc1ccccc1)[C@@H](O)C(=O)O)c1cnc(-c2ccccc2C(=O)O)cn1 [Example 5-19, 2-[5-((1R,2R)-1-Benzyl-2-carboxy-2-hydroxy-ethylcarbamoyl)-pyrazin-2-yl]-benzoic acid]	0.0126 to 0.1 µM
O=C(N[C@H](Cc1ccccc1)[C@@H](O)C(=O)O)c1ccnc(-c2ccccc2C(=O)O)c1 [Example 5-22, 2-[4-((1R,2R)-1-Benzyl-2-carboxy-2-hydroxy-ethylcarbamoyl)-pyridin-2-yl]-benzoic acid]	0.00126 to 0.01 µM
O=C(N[C@H](Cc1ccccc1)[C@@H](O)C(=O)O)c1ccc(-c2ccccc2C(=O)O)cn1 [Example 5-24, 2-[6-((1R,2R)-1-Benzyl-2-carboxy-2-hydroxy-ethylcarbamoyl)-pyridin-3-yl]-benzoic acid]	0.0126 to 0.1 µM
O=C(N[C@H](Cc1ccccc1)[C@@H](O)C(=O)O)c1cncc(-c2ccccc2C(=O)O)c1 [Example 5-25, 2-[5-((1R,2R)-1-Benzyl-2-carboxy-2-hydroxy-ethylcarbamoyl)-pyridin-3-yl]-benzoic acid]	0.00126 to 0.01 µM
O=C(N[C@H](Cc1ccccc1)[C@@H](O)C(=O)O)c1cnc2nn[nH]c2c1 [Example 5-29, (2R,3R)-2-Hydroxy-4-phenyl-3-[(1H-[1,2,3]triazolo[4,5-b]pyridine-6-carbonyl)-amino]-butyric acid]	0.0126 to 0.1 µM
O=C(N[C@H](Cc1ccccc1)[C@@H](O)C(=O)O)c1cc2cccn2cn1 [Example 5-30, (2R,3R)-2-Hydroxy-4-phenyl-3-[(pyrrolo[1,2-c]pyrimidine-3-carbonyl)-amino]-butyric acid]	0.0126 to 0.1 µM
Cc1cc(C(=O)N[C@@H](CC(=O)O)Cc2ccccc2Cl)cc2[nH]nnc12 [Example 7-2, (R)-4-(2-Chloro-phenyl)-3-[(7-methyl-3H-benzotriazole-5-carbonyl)-amino]-butyric acid]	0.0126 to 0.1 µM
O=C(O)C[C@@H](Cc1ccccc1Cl)NC(=O)c1ccc2nn[nH]c2c1 [Example 7-3, (R)-3-[(3H-Benzotriazole-5-carbonyl)-amino]-4-(2-chloro-phenyl)-butyric acid]	0.0126 to 0.1 µM
O=C(O)C[C@@H](Cc1ccccc1Cl)NC(=O)c1cc(Cl)c2nn[nH]c2c1 [Example 7-4, (R)-3-[(7-Chloro-3H-benzotriazole-5-carbonyl)-amino]-4-(2-chloro-phenyl)-butyric acid]	0.0126 to 0.1 µM
O=C(O)C[C@@H](Cc1ccccc1Cl)NC(=O)c1cc(F)c2[nH]nnc2c1 [Example 7-6, (R)-4-(2-Chloro-phenyl)-3-[(7-fluoro-1H-benzotriazole-5-carbonyl)-amino]-butyric acid]	0.0126 to 0.1 µM
O=C(O)C[C@@H](Cc1ccccc1Cl)NC(=O)c1ccc(-c2ccccc2C(=O)O)nn1 [Example 7-9, 2-{6-[(R)-2-Carboxy-1-(2-chloro-benzyl)-ethylcarbamoyl]-pyridazin-3-yl}-benzoic acid]	0.0126 to 0.1 µM

Further lines, results first:

Ki	SMILES
0.0126 to 0.1 µM	CCCc1nc2c(C)cc(C(=O)N[C@H](Cc3ccccc3)[C@@H](O)C(=O)O)cc2n1Cc1ccccc1OC [Example 5-6, (2R,3R)-2-Hydroxy-3-{[3-(2-methoxy-benzyl)-7-methyl-2-propyl-3H-benzoimidazole-5-carbonyl]-amino}-4-phenyl-butyric acid]
0.0126 to 0.1 µM	CCCc1nc2c(C)cc(C(=O)N[C@H](Cc3ccccc3)[C@@H](O)C(=O)O)cc2n1Cc1ccc(OC)cc1 [Example 5-7, (2R,3R)-2-Hydroxy-3-{[3-(4-methoxy-benzyl)-7-methyl-2-propyl-3H-benzoimidazole-5-carbonyl]-amino}-4-phenyl-butyric acid]
0.0126 to 0.1 µM	O=C(N[C@H](Cc1ccccc1)[C@@H](O)C(=O)O)c1cc(Cl)c2nn[nH]c2c1 [Example 5-13, (2R,3R)-3-[(7-Chloro-3H-benzotriazole-5-carbonyl)-amino]-2-hydroxy-4-phenyl-butyric acid]
0.0126 to 0.1 µM	O=C(N[C@H](Cc1ccccc1)[C@@H](O)C(=O)O)c1cc(F)c2[nH]nnc2c1 [Example 5-16, (2R,3R)-3-[(7-Fluoro-1H-benzotriazole-5-carbonyl)-amino]-2-hydroxy-4-phenyl-butyric acid]
0.0126 to 0.1 µM	O=C(N[C@H](Cc1ccccc1)[C@@H](O)C(=O)O)c1ccc(C(=O)O)nc1 [Example 5-20, 5-((1R,2R)-1-Benzyl-2-carboxy-2-hydroxy-ethylcarbamoyl)-pyridine-2-carboxylic acid]
0.00126 to 0.01 µM	O=C(N[C@H](Cc1ccccc1)[C@@H](O)C(=O)O)c1ccc(-c2ccccc2C(=O)O)nc1 [Example 5-21, 2-[5-((1R,2R)-1-Benzyl-2-carboxy-2-hydroxy-ethylcarbamoyl)-pyridin-2-yl]-benzoic acid]
0.00126 to 0.01 µM	O=C(N[C@H](Cc1ccccc1)[C@@H](O)C(=O)O)c1cc(-c2ccccc2C(=O)O)ccn1 [Example 5-26, 2-[2-((1R,2R)-1-Benzyl-2-carboxy-2-hydroxy-ethylcarbamoyl)-pyridin-4-yl]-benzoic acid]
0.00126 to 0.01 µM	O=C(O)c1ccc(C(=O)N[C@H](Cc2ccccc2)[C@@H](O)C(=O)O)s1 [Example 5-31, 5-((1R,2R)-1-Benzyl-2-carboxy-2-hydroxy-ethylcarbamoyl)-thiophene-2-carboxylic acid]
0.00126 to 0.01 µM	O=C(O)C[C@@H](Cc1ccccc1Cl)NC(=O)c1cc(-c2ccccc2C(=O)O)ccn1 [Example 6, 2-{2-[(R)-1-Carboxymethyl-2-(2-chloro-phenyl)-ethylcarbamoyl]-pyridin-4-yl}-benzoic Acid]
0.0126 to 0.1 µM	O=C(O)C[C@@H](Cc1ccccc1Cl)NC(=O)c1cnn[nH]1 [Example 7-1, (R)-4-(2-Chloro-phenyl)-3-[(3H-[1,2,3]triazole-4-carbonyl)-amino]-butyric acid]
0.0126 to 0.1 µM	O=C(O)C[C@@H](Cc1ccccc1Cl)NC(=O)c1cnc2nn[nH]c2c1 [Example 7-7, (R)-4-(2-Chloro-phenyl)-3-[(1H-[1,2,3]triazolo[4,5-b]pyridine-6-carbonyl)-amino]-butyric acid]
0.00126 to 0.01 µM	O=C(O)C[C@@H](Cc1ccccc1Cl)NC(=O)c1cnc(O)nc1 [Example 7-8, (R)-4-(2-Chloro-phenyl)-3-[(2-hydroxy-pyrimidine-5-carbonyl)-amino]-butyric acid]
